This is an account of results in patent US9877916B2, “Methods and compositions for treating aged skin” (ELC Management LLC, priority 2016, dated 2018).

The assay concerns normal human dermal fibroblasts (NHDF) from a donor. Put plainly: collagen induction assay (Pro-collagen Type I EIA) in aged fibroblasts. The class given is cell-based. As to conditions: 72 hr, 18 ug/ml, positive control. As to the method: Moringa oleifera seed extract was tested at various concentrations for its ability to stimulate collagen production in normal human dermal fibroblasts (“NHDF”) from a donor in a collagen induction assay. Moringa oleifera extract diluted in dimethylsulfoxide (“DMSO”) (% concentrations 0.003125, 0.00625 and 0.0125), Moringa oleifera […] diluted in Dulbecco's Modified Eagle Medium supplemented with 10% Hyclone® bovine calf serum and 1% Cellgro® penicillin-streptomycin solution (“DMEM”) (% concentrations of 0.0000625, 0.000125, 0.00025, 0.0005), positive control (L-ascorbic acid, 18 ug/ml), and DMEM alone were tested. Cell Growth and Maintenance. Aged NHDF were obtained from ZenBio. Fibroblasts were cultured in DMEM 1× (Life Tech) supplemented with 10% bovine calf serum (Hyclone) and 1% PenStrep solution (Cellgro). Cells were regularly maintained; subcultured as needed. Normal human dermal fibroblasts (NHDF, aged) were plated on a 96-well plate in supplemented DMEM (as indicated above). […] Alamar Blue results were determined using a plate reader. Data was analyzed using the SoftMax Pro software and Excel. Collagen production was assessed using the Pro-collagen Type I collagen EIA Kit (Takara) as per manufacturer's protocol, exactly as described. Plate was read using the Gemini M2E plate reader and results were compared. […]

`O=C1O[C@H]([C@@H](O)CO)C(O)=C1O` [L-ascorbic acid (+Control), L-ascorbic acid]: the “% increase in collagen induction” value is “+16%”.
